Data on four compounds can be found in patent publication US8492385B2, “Crystalline modifications of N-alpha-(2,4,6-triisopropylphenylsulfonyl)-3-hydroxyamidino- (L)- phenylalanine 4-ethoxycarbonylpiperazide and/or salts thereof” (Wilex AG, priority 2004, dated 2013).

Common to all, as to type: physicochemical
A short description of data set [1]: Investigation of the crystallinity by X-ray diffractometry. The following applies: salts suspended 7 days in a suitable solvent, filtered, dried at room temperature. The text has this:
In a second step, the salts were suspended for 7 days in a suitable solvent, filtered and dried at room temperature.
Processes: X-ray diffractometry (XRD); microscopy

A short description of data set [2]: Investigation of the hygroscopicity (storage at 85% relative humidity, TGA). Conditions: storage for 1 week/85% relative humidity.
Data set [3] is described as follows: Polymorphism screening / stability of the solid form (stirring in solvents, mechanical stress).
A short description of data set [4]: DSC and TGA thermograms of WX-671.1 (hydrogensulfate salt). How it is done:
In this example, thermograms were plotted by differential scanning calorimetry (DSC) and thermo-gravimetry (TGA). […] It decomposes from about 180° C. (exothermic peak in the DSC thermogram, mass loss in the TGA thermogram in the corresponding temperature range). The decomposition temperatures are strongly heating rate-dependent and were determined in the DSC calorimeter at a heating rate of 2 Kmin^−1. The DSC table measurements shown were recorded at a heating rate of […] is correspondingly recorded at higher temperatures.

A short description of data set [5]: Thermomicroscopy of WX-671.1. The procedure:
Thermomicroscopic recordings of a sample of WX-671.1 were made (not shown). Agglomerates were observed which show no specific habit. The active compound decomposes with bubble formation from about 197° C. Differences to the decomposition temperature observed in the DSC calorimeter come about due to the different heating rates. WX-671.1 is obtained in nonspecific form from solvents.

With Tartrate, in data set [1], the “XRD (crystallinity)” value is “completely amorphous”. Further, in data set [2], the “TGA (hygroscopicity)” value is given as 10.5% and the “TGA, kind of water uptake” value is “(adsorptive)”.
In the case of `CCOC(=O)N1CCN(C(=O)[C@H](Cc2cccc(C(N)=NO)c2)NS(=O)(=O)c2c(C(C)C)cc(C(C)C)cc2C(C)C)CC1.O=S(=O)(O)O` [WX-671.2, N-α-(2,4,6-triisopropylphenyl-sulfonyl)-3-hydroxyamidino-(L)-phenylalanine 4-ethoxy-carbonylpiperazide sulfate], the “thermodynamic stability of the form” value in data set [3] was “thermodynamically stable compound”.
Take `CCOC(=O)N1CCN(C(=O)[C@H](Cc2cccc(C(N)=NO)c2)NS(=O)(=O)c2c(C(C)C)cc(C(C)C)cc2C(C)C)CC1` [WX-671.1, N-α-(2,4,6-triisopropylphenylsulfonyl)-3-hydroxyamidino-(L)-phenylalanine 4-ethoxycarbonylpiperazide]: in data set [1], the “XRD (crystallinity)” value is reported as “liquid crystalline”. Further, the decomposition temperature entry in data set [4] (mesophase B) was “about 185 °C”. Moreover, the “mass loss (TGA)” value in data set [4] (mesophase C, up to 175° C.) turned out to be 4.5%. In data set [4] (modification A, at 150° C.), the “mass loss (TGA)” value is on record as “no significant mass loss”. Further, the “decomposition with bubble formation, temperature” value in data set [5] was “about 197 °C”. In addition, in data set [2], the “TGA (hygroscopicity)” value was determined as 0.8% and the “TGA, kind of water uptake” value is on record as “(adsorptive)”. In data set [3] (mesophase B), the “change of form on stirring in water:ethanol (1:1)” value is “does not change”. For the same compound, the “change of form due to mechanical stress” value in data set [3] (mesophase B, grinding in a mortar, compressing at 9 kbar) is recorded as “does not alter”. For the same compound, in data set [3] (mesophase B, room temperature, one week), the “change of form on stirring in isopropanol” value is given as “changes into modification A”.
Hydrochloride: in data set [1], the “XRD (crystallinity)” value was “completely amorphous”. Further, in data set [2], the “TGA (hygroscopicity)” value is listed as 7.5% and the “TGA, kind of water uptake” value was “(adsorptive)”.
